Test results published in US20040014187A1, “Bacterial carboxypeptidase cpg2 variants and their use in gene directed enzyme prodrug therapy” (priority 2000, published 2004).
Where “and” joins values, the source holds several entries; their conditions need not be identical. Identical values can stand only once. Like-named read-outs stand apart in the source and are kept apart here.

Tests used:
A2780 cells [1] = assay: Cytotoxicity of CMDA, [3H]-thymidine incorporation; type: cell-based, human
Method: (§1) Cytotoxicity and bystander cytotoxicity assays were performed as described previously (Marais et al (1996) Cancer Res. 56, 4735-4742). Briefly, for cytotoxicity assays, cells were grown to confluence and treated twice, once for an hour, immediately followed by an 18 h treatment, using increasing amounts of CMDA prodrug in DMEM/FCS. Cells were trypsinized and approximately 3% were replated and allowed to grow for a further 4 days, when uptake of [^3H]-thymidine was used to infer survival. For bystander assays, mixtures of cells expressing stCPG2(Q)3 and cells of the same lineage expressing β-galactosidase were treated with a single concentration of CMDA in the same two-stage treatment protocol, using 2 mM CMDA for WiDr and SK-OV-3 cells and 1 mM CMDA for A2780 cells.

SK-OV-3 cells [2] = assay: Cytotoxicity of CMDA, [3H]-thymidine incorporation; type: cell-based, human
Method: as §1

WiDr cells [3] = assay: Cytotoxicity of CMDA, [3H]-thymidine incorporation; type: cell-based, human
Method: as §1

[4] = system: control cell lines expressing lacZ; assay: Kinetics of cell death: toxicity of CMDA test concentrations to control cells; type: cell-based, human; details: 2 mM CMDA (WiDr, SK-OV-3) or 1 mM CMDA (A2780)
Method: To determine exposure times to CMDA required for the death of 50% of the cell populations, cell lines were plated at 3×10^5 cells per well in 6-well tissue culture plates, and allowed to grow to confluence. Tissue culture medium was replaced with 1 ml DMEM/FCS containing 2 mM CMDA (for WiDr and SK-OV-3 cell lines) or 1 mM CMDA (for A2780 cell lines). These concentrations are not toxic to control cell lines expressing lacZ. After 0.5, 1, 2, 4, 8, 12, and 16 h exposure, cells were trypsinized and approximately 3% were replated. After a further 4 d growth, cell survival was determined by [^3H]-thymidine incorporation (0.4 μCi/ml, 6h).

WiDr cells [5] = details: WiDr clone expressing CPG2*, previous study; read-out: IC50 for CMDA; cited from earlier work
SK-OV-3 cells [6] = details: SK-OV-3 clone expressing CPG2* (1.013 U/mg), previous study; read-out: IC50 for CMDA; cited from earlier work
A2780 cells [7] = details: A2780 clone expressing CPG2*, previous study; read-out: IC50 for CMDA; cited from earlier work
[8] = patients, ADEPT trial; cited from earlier work

In the case of CS(=O)(=O)OCCN(CCCl)c1ccc(C(=O)N[C@@H](CCC(=O)O)C(=O)O)cc1 [CMDA, N-4-[(2-chloroethyl) (2-mesyloxyethyl)amino]benzoyl-L-glutamic acid], the IC50 (A2780 cells [1]; A2780 clone A3 expressing stCPG2(Q)3) is reported as 15.6 µM, the “Differential cytotoxicity (fold)” value (A2780 cells [1]; A2780 clone A3 stCPG2(Q)3 versus lacZ) is reported as 138 fold and the IC50 (A2780 cells [1]; A2780 clone A4 expressing stCPG2(Q)3) is reported as 20.4 µM. The “Differential cytotoxicity (fold)” value (A2780 cells [1]; A2780 clone A4 stCPG2(Q)3 versus lacZ) was 105 fold, the “increase in sensitivity compared to β-gal expressing cells” value (A2780 cells [1]; A2780 clones expressing stCPG2(Q)3) was > 100 fold and the IC50 (A2780 cells [1]; A2780 expressing lacZ (β-gal)) was 2150 µM. The “Differential cytotoxicity (fold)” value (SK-OV-3 cells [2]; SK-OV-3 clone S2.34 CPG2* versus lacZ) was 3.2 fold, the IC50 (SK-OV-3 cells [2]; SK-OV-3 clone S2.34 expressing CPG2*, read-out: IC50 (μM CMDA)) was 1290 µM and the “Differential cytotoxicity (fold)” value (SK-OV-3 cells [2]; SK-OV-3 clone S2.4 CPG2* versus lacZ) was 1.3 fold. The IC50 (SK-OV-3 cells [2]; SK-OV-3 clone S2.4 expressing CPG2*, read-out: IC50 (μM CMDA)) was 3200 µM, the IC50 (SK-OV-3 cells [2]; SK-OV-3 clone S5 expressing stCPG2(Q)3, read-out: IC50 (μM CMDA)) was 216 µM and the “Differential cytotoxicity (fold)” value (SK-OV-3 cells [2]; SK-OV-3 clone S5 stCPG2(Q)3 versus lacZ) was 19.4 fold. For the same compound, the IC50 (SK-OV-3 cells [2]; SK-OV-3 clone S6 expressing stCPG2(Q)3, read-out: IC50 (μM CMDA)) was 479 µM, the “Differential cytotoxicity (fold)” value (SK-OV-3 cells [2]; SK-OV-3 clone S6 stCPG2(Q)3 versus lacZ) was 8.7 fold and the IC50 (SK-OV-3 cells [2]; SK-OV-3 clone S7 expressing stCPG2(Q)3, read-out: IC50 (μM CMDA)) was 544 µM. For the same compound, the “Differential cytotoxicity (fold)” value (SK-OV-3 cells [2]; SK-OV-3 clone S7 stCPG2(Q)3 versus lacZ) was 7.7 fold, the “increase in sensitivity compared to β-gal expressing cells” value (SK-OV-3 cells [2]; SK-OV-3 clones expressing stCPG2(Q)3) was 7-20 fold and the IC50 (SK-OV-3 cells [2]; SK-OV-3 clones expressing stCPG2(Q)3, read-out: IC50 for CMDA) was 216 to 544 µM. For the same compound, the IC50 (SK-OV-3 cells [2]; SK-OV-3 expressing lacZ, read-out: IC50 (μM CMDA)) was 4180 µM, the “Differential cytotoxicity (fold)” value (WiDr cells [3]; WiDr clone W3 stCPG2(Q)3 versus lacZ) was 32.3 fold and the “Differential cytotoxicity (fold)” value (WiDr cells [3]; WiDr clone W4 stCPG2(Q)3 versus lacZ) was 22.0 fold. The IC50 (WiDr cells [3]; WiDr clones expressing stCPG2(Q)3, read-out: IC50 for CMDA) was 100 to 150 µM and 100 µM and 147 µM, the IC50 (WiDr cells [3]; WiDr expressing lacZ (β-gal), read-out: IC50 (μM CMDA)) was 3230 µM and the “toxicity to control cell lines expressing lacZ” value [4] was “not toxic”. The IC50 (WiDr cells [5]) was 277 µM, the IC50 (SK-OV-3 cells [6]) was 258 µM and the IC50 (A2780 cells [7]) was 23.2 µM. The “peak CMDA concentration in sera” value [8] was “approximately 3 mM”.
